The target of assay [1] is T1, EP2 (Homo sapiens, UniProt P43116). Briefly: EP2 flipr. The class given is cell-based. The source says: (§1) U.S. patent application Ser. No. 11/553,143, filed on Oct. 26, 2006, incorporated by reference herein in its entirety, describes the methods used to obtain the in vitro data in the table below.
For assay [2], the target named is T1, EP2. Briefly: EP2 cAMP. The assay is classed as cell-based.
Description: as §1

The target of assay [3] is T1, EP2. The assay can be described thus: EP2 binding Ki.
Description: as §1

In the next assay the target is T2, hEP3A (Homo sapiens, UniProt P43115).
T2 sequence (P43115 1-390): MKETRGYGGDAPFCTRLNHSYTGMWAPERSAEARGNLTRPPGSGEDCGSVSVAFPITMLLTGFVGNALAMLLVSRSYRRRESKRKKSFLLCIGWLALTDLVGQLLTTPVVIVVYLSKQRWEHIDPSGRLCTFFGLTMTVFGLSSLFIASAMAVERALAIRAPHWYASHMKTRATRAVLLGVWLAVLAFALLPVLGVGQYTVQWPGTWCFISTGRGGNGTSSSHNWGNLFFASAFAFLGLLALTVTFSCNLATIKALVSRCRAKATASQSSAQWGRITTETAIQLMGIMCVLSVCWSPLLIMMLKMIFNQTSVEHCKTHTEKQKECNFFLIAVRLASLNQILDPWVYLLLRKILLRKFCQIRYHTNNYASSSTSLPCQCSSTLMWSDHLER
Briefly: Other receptors hEP3A. The class given is cell-based.
Description: as §1

Assay [4] has as its target T3, EP4 (Homo sapiens, UniProt P35408). The assay can be described thus: EP4 flipr. The assay is classed as cell-based.
Description: as §1

The target of assay [5] is T3, EP4. The assay can be described thus: EP4 binding Ki.
Description: as §1

By EC50 is commonly meant the concentration needed to bring the measured effect to its halfway point. For orientation: Ki means a measure of affinity in units of concentration, obtained from inhibition or displacement. The low end stands for tighter binding, the high end for weaker binding.

T3 sequence (P35408 whole entry): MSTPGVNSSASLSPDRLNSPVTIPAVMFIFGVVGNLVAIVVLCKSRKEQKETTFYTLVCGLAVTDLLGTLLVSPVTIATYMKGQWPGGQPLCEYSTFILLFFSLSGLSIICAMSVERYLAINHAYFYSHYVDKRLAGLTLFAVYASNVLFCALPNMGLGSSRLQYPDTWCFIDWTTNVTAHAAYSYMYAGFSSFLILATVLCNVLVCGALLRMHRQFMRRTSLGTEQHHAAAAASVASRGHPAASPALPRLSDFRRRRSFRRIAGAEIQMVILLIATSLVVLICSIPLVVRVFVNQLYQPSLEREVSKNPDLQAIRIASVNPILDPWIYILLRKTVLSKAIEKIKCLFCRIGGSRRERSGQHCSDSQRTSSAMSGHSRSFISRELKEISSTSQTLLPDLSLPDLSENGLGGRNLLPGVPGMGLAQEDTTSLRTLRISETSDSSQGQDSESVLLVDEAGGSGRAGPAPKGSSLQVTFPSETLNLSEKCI
T1 sequence (P43116 whole entry): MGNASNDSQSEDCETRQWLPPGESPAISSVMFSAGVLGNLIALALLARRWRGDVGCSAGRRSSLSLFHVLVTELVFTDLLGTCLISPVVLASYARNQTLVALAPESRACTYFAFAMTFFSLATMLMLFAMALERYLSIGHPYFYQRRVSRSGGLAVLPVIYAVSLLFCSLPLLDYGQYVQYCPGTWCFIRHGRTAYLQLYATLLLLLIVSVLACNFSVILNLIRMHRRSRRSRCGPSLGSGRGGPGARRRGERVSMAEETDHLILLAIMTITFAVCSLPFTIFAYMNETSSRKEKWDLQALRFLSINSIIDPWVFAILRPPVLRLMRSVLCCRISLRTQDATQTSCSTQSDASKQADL

For the molecule `O=C(O)c1ccc(CCC[C@H]2C(C(F)(F)F)C[C@@H](O)[C@@H]2C#Cc2ccccc2)s1` (single isomer, unassigned) [Example 23], the EC50 on EP2 [1] was 79 nM; at EP2 [2], 3 nM; on hEP3A it was 7100 nM. This molecule also registered a Ki at EP2 [3] of 30 nM.

As to `O=C(O)c1ccc(CCC[C@@H]2[C@@H](C#Cc3ccccc3)[C@H](O)C[C@H]2C(F)(F)F)s1` (single isomer, unassigned) [Example 24], the EC50 is 107 nM on EP2 [1] and 4 nM at EP2 [2]. This molecule also showed a Ki at EP2 [3] of 41 nM.

On to `O=C(O)c1ccc(CCC[C@@H]2[C@@H](/C=C/c3cncc(Cl)c3)[C@H](O)C[C@H]2Cl)s1` [Example 3, 5-(3-((1R,2R,3R,5R)-5-chloro-2-((E)-2-(5-chloropyridin-3-yl)vinyl)-3-hydroxycyclopentyl)propyl)-thiophene-2-carboxylic acid], for which the EC50 came to 101 nM at EP2 [1], 1.3 nM on EP2 [2] and 15.9 µM at EP4 [4]. The Ki on EP2 [3] came to 10 nM; at EP4 [5] it was 3500 nM.

In the case of `O=C(O)c1ccc(CCC[C@@H]2[C@@H](/C=C/c3cc(Cl)nc(Cl)c3)[C@H](O)C[C@H]2Cl)s1` [Example 4, 5-(3-((1R,2R,3R,5R)-5-chloro-2-((E)-2-(2,6-dichloropyridin-4-yl)vinyl)-3-hydroxycyclopentyl)propyl)-thiophene-2-carboxylic acid], the EC50 is 44 nM at EP2 [1], 0.09 nM at EP2 [2] and 15.9 µM on EP4 [4]. For the same molecule, the Ki at EP2 [3] was 2.3 nM; on EP4 [5], 162 nM.

Take `Cc1cc(C)cc(/C=C/[C@@H]2[C@@H](CCCc3ccc(C(=O)O)s3)[C@H](Cl)C[C@H]2O)c1` [Example 8, 5-(3-((1R,2R,3R,5R)-5-chloro-2-(3,5-dimethylstyryl)-3-hydroxycyclopentyl)propyl)thiophene-2-carboxylic acid]: the EC50 came out at 328 nM at EP2 [1], 1.4 nM at EP2 [2] and 10 µM on EP4 [4]. The Ki at EP2 [3] came out at 8 nM; at EP4 [5], 86 nM.

Regarding `C=CCCc1cccc(/C=C/[C@@H]2[C@@H](CCCc3ccc(C(=O)O)s3)[C@H](Cl)C[C@H]2O)c1` [Example 9, 5-(3-((1R,2R,3R,5R)-2-(3-(but-3-enyl)styryl)-5-chloro-3-hydroxycyclopentyl)propyl)thiophene-2-carboxylic acid], the EC50 came out at 72 nM at EP2 [1], 0.03 nM at EP2 [2], 17.3 µM on EP4 [4] and 5780 nM at hEP3A. Moreover, the Ki is 0.7 nM on EP2 [3] and 288 nM at EP4 [5].

For `C/C=C/c1cc(Cl)cc(/C=C/[C@@H]2[C@@H](CCCc3ccc(C(=O)O)s3)[C@H](Cl)C[C@H]2O)c1` [Example 10, 5-(3-((1R,2R,3R,5R)-5-chloro-2-((E)-3-chloro-5-((E)-prop-1-enyl)styryl)-3-hydroxycyclopentyl)propyl)thiophene-2-carboxylic acid], the values for the EC50 at EP2 [1], at EP2 [2] and at EP4 [4] were 1640 nM, 0.1 nM and more than 10 µM, respectively. Also, the Ki on EP2 [3] amounted to 1.4 nM; on EP4 [5], 90 nM.

For the molecule `C/C=C/c1cc(Cl)cc(/C=C\[C@@H]2[C@@H](CCCc3ccc(C(=O)O)s3)[C@H](Cl)C[C@H]2O)c1` [Example 11, 5-(3-((1R,2R,3R,5R)-5-chloro-2-((Z)-3-chloro-5-((E)-prop-1-enyl)styryl)-3-hydroxycyclopentyl)propyl)thiophene-2-carboxylic acid], the EC50 on EP2 [1] amounted to 2180 nM; on EP2 [2] it was 12 nM; on EP4 [4], 6.46 µM. Moreover, the values for the Ki at EP2 [3] and on EP4 [5] were 24 nM and 239 nM, respectively.

Regarding `CCCc1cc(/C=C/[C@@H]2[C@@H](CCCc3ccc(C(=O)O)s3)[C@H](Cl)C[C@H]2O)ccn1` [Example 13, 5-(3-((1R,2R,3R,5R)-5-chloro-3-hydroxy-2-((E)-2-(2-propylpyridin-4-yl)vinyl)cyclopentyl)propyl)thiophene-2-113 carboxylic acid], the EC50 is more than 10000 nM at EP2 [1], 0.4 nM at EP2 [2] and more than 10 µM at EP4 [4]. In addition, the Ki was 2 nM at EP2 [3] and 193 nM at EP4 [5].

`O=C(O)c1csc(SCC[C@@H]2[C@@H](/C=C/c3cc(Cl)cc(Cl)c3)[C@H](O)C[C@H]2Cl)n1` [Example 14, 2-(2-((1R,2R,3R,5R)-5-chloro-2-(3,5-dichlorostyryl)-3-hydroxycyclopentyl)ethylthio)thiazole-4-carboxylic acid]: the EC50 at EP2 [1] came out at 7 nM; at EP2 [2] it was 0.04 nM; at EP4 [4], 3.46 µM; on hEP3A, 3880 nM. Also, the Ki worked out at 1.2 nM at EP2 [3] and 616 nM at EP4 [5].

Take `O=C(O)c1ccc(CCC[C@@H]2C(=O)C[C@@H](O)[C@@H]2C#Cc2ccccc2)s1` [Example 18, 5-(3-((1S,2S,3R)-3-hydroxy-5-oxo-2-(phenylethynyl)cyclopentyl)propyl)thiophene-2-carboxylic acid]: the EC50 was determined as 22 nM on EP2 [1], 0.6 nM on EP2 [2] and 3.22 µM at EP4 [4]. Further, the Ki on EP2 [3] turned out to be 30 nM; at EP4 [5] it was 1790 nM.

Turning to `O=C(O)c1ccc(CCC[C@@H]2[C@@H](C#Cc3cc(Cl)cc(Cl)c3)[C@H](O)C[C@H]2Cl)s1` [Example 25, 5-(3-((1R,2S,3R,5R)-5-chloro-2-((3,5-dichlorophenyl)ethynyl)-3-hydroxycyclopentyl)propyl)thiophene-2-carboxylic acid], the EC50 on EP2 [1] stood at 133 nM; at EP2 [2], 0.09 nM; on EP4 [4] it was 1.91 µM. Moreover, the Ki at EP2 [3] was less than 0.08 nM; on EP4 [5] it was 466 nM.

For the molecule `CCc1cccc(C#C[C@@H]2[C@@H](CCCc3ccc(C(=O)O)s3)[C@H](Cl)C[C@H]2O)c1` [Example 26, 5-(3-((1R,2S,3R,5R)-5-chloro-2-((3-ethylphenyl)ethynyl)-3-hydroxycyclopentyl)propyl)thiophene-2-carboxylic acid], the EC50 at EP2 [1] worked out at 56 nM; at EP2 [2], 0.08 nM; on EP4 [4] it was 0.616 µM. The Ki at EP2 [3] was 0.3 nM; at EP4 [5] it was 316 nM.

With `C=CCCc1cccc(C#C[C@@H]2[C@@H](CCCc3ccc(C(=O)O)s3)[C@H](Cl)C[C@H]2O)c1` [Example 27, 5-(3-((1R,2S,3R,5R)-2-((3-(but-3-enyl)phenyl)ethynyl)-5-chloro-3-hydroxycyclopentyl)propyl)thiophene-2-carboxylic acid], the EC50 on EP2 [1] came out at 19 nM; at EP2 [2], 0.03 nM; at EP4 [4] it was 11 µM. Moreover, the figures for the Ki at EP2 [3] and at EP4 [5] were 1 nM and 436 nM, respectively.

As to `O=C(O)c1ccc(CCC[C@@H]2[C@@H](C#Cc3ccsc3)[C@H](O)C[C@H]2Cl)s1` [Example 29, 5-(3-((1R,2S,3R,5R)-5-chloro-3-hydroxy-2-(thiophen-3-ylethynyl)cyclopentyl)propyl)thiophene-2-carboxylic acid], the figures for the EC50 at EP2 [2] and on EP4 [4] were 3.3 nM and 5.91 µM, respectively. The Ki on EP2 [3] came to 64 nM; on EP4 [5], 1870 nM.

Regarding `O=C(O)c1ccc(CCC[C@@H]2[C@@H](C#Cc3ccccn3)[C@H](O)C[C@H]2Cl)s1` [Example 30, 5-(3-((1R,2S,3R,5R)-5-chloro-3-hydroxy-2-(pyridin-2-ylethynyl)cyclopentyl)propyl)thiophene-2-carboxylic acid], the figures for the EC50 on EP2 [1], on EP2 [2] and at EP4 [4] were 3 nM, 0.2 nM and more than 10 µM, respectively. Also, the Ki was determined as 11 nM at EP2 [3] and 2140 nM on EP4 [5].

Consider `O=C(O)c1ccc(CCC[C@@H]2[C@@H](C#Cc3cccnc3)[C@H](O)C[C@H]2Cl)s1` [Example 31, 5-(3-((1R,2S,3R,5R)-5-chloro-3-hydroxy-2-(pyridin-3-ylethynyl)cyclopentyl)propyl)thiophene-2-carboxylic acid], for which the EC50 at EP2 [1] was 2 nM; at EP2 [2] it was 0.3 nM; on EP4 [4] it was 4.2 µM. Moreover, the Ki is 4 nM on EP2 [3] and 1440 nM on EP4 [5].

As to `O=C(O)c1ccc(CCC[C@@H]2[C@@H](C#Cc3ccncc3)[C@H](O)C[C@H]2Cl)s1` [Example 32, 5-(3-((1R,2S,3R,5R)-5-chloro-3-hydroxy-2-(pyridin-4-ylethynyl)cyclopentyl)propyl)thiophene-2-carboxylic acid], the results for the EC50 on EP2 [1], at EP2 [2] and at EP4 [4] were 306 nM, 7 nM and more than 10 µM, respectively. The figures for the Ki on EP2 [3] and at EP4 [5] were 79 nM and 8670 nM, respectively.

Take `O=C(O)c1ccc(CCC[C@@H]2[C@@H](C#Cc3cccc(CCCO)c3)[C@H](O)C[C@H]2Cl)s1` [Example 33, 5-(3-((1R,2S,3R,5R)-5-chloro-3-hydroxy-2-((3-(3-hydroxypropyl)phenyl)ethynyl)cyclopentyl)propyl)thiophene-2-carboxylic acid]: the values for the EC50 on EP2 [2] and on EP4 [4] were 0.22 nM and 8.99 µM, respectively. The Ki on EP2 [3] worked out at 2 nM; on EP4 [5] it was 1520 nM.

The values are drawn from patent publication US9765065B2, “Therapeutic substituted cyclopentanes” (ALLERGAN, INC., priority 2007, dated 2017).
